The assay deals with T1, active p38 alpha enzyme (Upstate Biotechnology) (Homo sapiens, UniProt Q16539).
T1 construct: purchased Upstate Biotechnology
Kind of assay: p38α biochemical assay (ATP turnover, luminescent detection, Cambrex PKlight). As to conditions: p38α kinase; Table 1 Biological Activity. In short, it runs like this:
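Compounds in DMSO are added to active p38 alpha with MapkapK2 whole protein and ATP at 1.4 uM final. Reactions then run for 2 hours at 30C. A luminescent reagent is added last to quantify total ATP consumed.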

T1 sequence (Q16539 whole entry): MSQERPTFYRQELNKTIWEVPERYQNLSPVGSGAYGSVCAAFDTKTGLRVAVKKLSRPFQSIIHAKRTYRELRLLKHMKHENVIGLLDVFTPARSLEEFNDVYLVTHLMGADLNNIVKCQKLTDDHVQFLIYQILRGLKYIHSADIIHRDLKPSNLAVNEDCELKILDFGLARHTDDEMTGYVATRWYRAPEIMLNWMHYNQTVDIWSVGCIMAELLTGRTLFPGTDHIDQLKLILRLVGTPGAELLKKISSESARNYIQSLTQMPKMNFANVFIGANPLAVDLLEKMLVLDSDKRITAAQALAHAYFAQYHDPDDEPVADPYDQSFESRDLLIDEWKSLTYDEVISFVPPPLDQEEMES

What is called IC50 is the midpoint of a concentration-inhibition curve. A higher IC50 goes with weaker potency. On to `Cc1nc(-c2ccc(F)cc2)c(-c2nc(C(=O)N3CCN(CCN4CCOCC4)CC3)cs2)s1` [Example 1929], for which the IC50 was above 1000 nM.
In the case of `Cc1nc(-c2ccc(F)cc2)c(-c2nc(C(=O)N3CCC(N(C)C(=O)OC(C)(C)C)C3)cs2)s1` (stereo not drawn) [Example 1930] it was above 1000 nM; in that of `CC(=O)c1ccc(N2CCN(C(=O)c3csc(-c4sc(C)nc4-c4ccc(F)cc4)n3)CC2)cc1` [Example 1931], above 1000 nM; in that of `CCN(CC)CCN(Cc1ccccc1)C(=O)c1csc(-c2sc(C)nc2-c2ccc(F)cc2)n1` [Example 1932], above 1000 nM.
To `Cc1nc(-c2ccc(F)cc2)c(-c2nc(C(=O)N3CCN(c4ccc([N+](=O)[O-])cc4)CC3)cs2)s1` [Example 1933] belongs above 1000 nM.
Take `Cc1nc(-c2ccc(F)cc2)c(-c2nc(C(=O)N(C)Cc3cccc4ccccc34)cs2)s1` [Example 1934]: the IC50 was above 1000 nM.
`Cc1nc(-c2ccc(F)cc2)c(-c2nc(C(=O)N3CCN(c4cc(Cl)ccc4C)CC3)cs2)s1` [Example 1935] came in with an IC50 above 1000 nM.
To `COc1cc(CN(C)C(=O)c2csc(-c3sc(C)nc3-c3ccc(F)cc3)n2)cc(OC)c1OC` [Example 1936] belongs at most 1000 nM; to `Cc1nc(-c2ccc(F)cc2)c(-c2nc(C(=O)N(CCc3ccccc3)Cc3ccccc3)cs2)s1` [Example 1937], above 1000 nM.
For the molecule `Cc1nc(-c2ccc(F)cc2)c(-c2nc(C(=O)N(C)C(Cc3ccccc3)c3ccccc3)cs2)s1` (stereo not drawn) [Example 1939], the IC50 is above 1000 nM.
In the case of `Cc1nc(-c2ccc(F)cc2)c(-c2nc(C(=O)N3CCC(O)(c4ccc(Cl)cc4)CC3)cs2)s1` [Example 1940] it was above 1000 nM; in that of `C#CCN(Cc1ccc(Cl)cc1Cl)C(=O)c1csc(-c2sc(C)nc2-c2ccc(F)cc2)n1` [Example 1941], above 1000 nM.
As for `CCN(C(=O)c1csc(-c2sc(C)nc2-c2ccc(F)cc2)n1)C(Cc1ccccc1)c1ccco1` (stereo not drawn) [Example 1942], the IC50 is above 1000 nM.
`Cc1nc(-c2ccc(F)cc2)c(-c2nc(C(=O)N3CCN(C(=O)OC(C)(C)C)C[C@H]3CO)cs2)s1` [Example 1943] registered an IC50 above 1000 nM.
`Cc1nc(-c2ccc(F)cc2)c(-c2nc(C(=O)N3CCN(c4ccc(C(C)(C)C)cc4)CC3)cs2)s1` [Example 1944] returned an IC50 above 1000 nM.
To `Cc1nc(-c2ccc(F)cc2)c(-c2nc(C(=O)N3CCN(Cc4ccc5c(c4)OCO5)CC3)cs2)s1` [Example 1945] belongs above 1000 nM; to `COc1cc2c(cc1OC)CN(C(=O)c1csc(-c3sc(C)nc3-c3ccc(F)cc3)n1)CC2` [Example 1946], at most 1000 nM; to `Cc1nc(-c2ccc(F)cc2)c(-c2nc(C(=O)N3CCN(c4ccc(C(F)(F)F)cc4)CC3)cs2)s1` [Example 1947], above 1000 nM.
Regarding `Cc1nc(-c2ccc(F)cc2)c(-c2nc(C(=O)N3CCN(c4cccc(C(F)(F)F)c4)CC3)cs2)s1` [Example 1948], the IC50 is above 1000 nM.
In turn, `Cc1nc(-c2ccc(F)cc2)c(-c2nc(C(=O)N3CCN(c4ccc(Cl)c(Cl)c4)CC3)cs2)s1` [Example 1949] displayed an IC50 above 1000 nM.
As to `Cc1nc(-c2ccc(F)cc2)c(-c2nc(C(=O)N3CCN(c4ccc(C(F)(F)F)cn4)CC3)cs2)s1` [Example 1951], the IC50 is above 1000 nM.
As to `Cc1nc(-c2ccc(F)cc2)c(-c2nc(C(=O)N3CCN(c4ccccc4Cl)CC3)cs2)s1` [Example 1952], the IC50 was above 1000 nM.
In the case of `COc1ccc(N2CCN(C(=O)c3csc(-c4sc(C)nc4-c4ccc(F)cc4)n3)CC2)cc1OC` [Example 1953] it was above 1000 nM.
In the case of `Cc1nc(-c2ccc(F)cc2)c(-c2nc(C(=O)N3CCCC(c4ccc(C(F)(F)F)cc4)C3)cs2)s1` (stereo not drawn) [Example 1954] it was above 1000 nM; in that of `Cc1nc(-c2ccc(F)cc2)c(-c2nc(C(=O)Nc3ccccc3)cs2)s1` [Example 1955], above 1000 nM.
To `Cc1cccc(NC(=O)c2csc(-c3sc(C)nc3-c3ccc(F)cc3)n2)c1` [Example 1956] belongs above 1000 nM; to `Cc1ccc(NC(=O)c2csc(-c3sc(C)nc3-c3ccc(F)cc3)n2)cc1` [Example 1957], above 1000 nM; to `Cc1nc(-c2ccc(F)cc2)c(-c2nc(C(=O)Nc3ccccc3C)cs2)s1` [Example 1958], above 1000 nM.
Regarding `Cc1ccc(NC(=O)c2csc(-c3sc(C)nc3-c3ccc(F)cc3)n2)nc1` [Example 1959], the IC50 was above 1000 nM.
In the case of `Cc1cccc(NC(=O)c2csc(-c3sc(C)nc3-c3ccc(F)cc3)n2)n1` [Example 1960] it was above 1000 nM; in that of `Cc1ccnc(NC(=O)c2csc(-c3sc(C)nc3-c3ccc(F)cc3)n2)c1` [Example 1961], above 1000 nM; in that of `Cc1nc(-c2ccc(F)cc2)c(-c2nc(C(=O)Nc3ncccc3C)cs2)s1` [Example 1962], above 1000 nM.
As to `Cc1nc(-c2ccc(F)cc2)c(-c2nc(C(=O)Nc3ccccc3F)cs2)s1` [Example 1963], the IC50 is above 1000 nM.
For `Cc1nc(-c2ccc(F)cc2)c(-c2nc(C(=O)Nc3ccc(F)cc3)cs2)s1` [Example 1964], the IC50 was above 1000 nM.
In the case of `Cc1ccc(C)c(NC(=O)c2csc(-c3sc(C)nc3-c3ccc(F)cc3)n2)c1` [Example 1965] it was above 1000 nM; in that of `Cc1nc(-c2ccc(F)cc2)c(-c2nc(C(=O)Nc3ccc(C)c(C)c3)cs2)s1` [Example 1966], above 1000 nM.
In the case of `CCc1ccccc1NC(=O)c1csc(-c2sc(C)nc2-c2ccc(F)cc2)n1` [Example 1967] it was above 1000 nM; in that of `Cc1ccc(NC(=O)c2csc(-c3sc(C)nc3-c3ccc(F)cc3)n2)c(C)c1` [Example 1970], above 1000 nM.
The molecule `Cc1cc(C)cc(NC(=O)c2csc(-c3sc(C)nc3-c3ccc(F)cc3)n2)c1` [Example 1971] came in with an IC50 above 1000 nM.
As for `COc1cccc(NC(=O)c2csc(-c3sc(C)nc3-c3ccc(F)cc3)n2)c1` [Example 1972], the IC50 was above 1000 nM.
The molecule `COc1ccc(NC(=O)c2csc(-c3sc(C)nc3-c3ccc(F)cc3)n2)cc1` [Example 1973] registered an IC50 above 1000 nM.
Molecule `COc1ccccc1NC(=O)c1csc(-c2sc(C)nc2-c2ccc(F)cc2)n1` [Example 1974] registered an IC50 of at most 1000 nM.
In the case of `COc1ccncc1NC(=O)c1csc(-c2sc(C)nc2-c2ccc(F)cc2)n1` [Example 1975] it was at most 1000 nM; in that of `Cc1nc(-c2ccc(F)cc2)c(-c2nc(C(=O)Nc3ccc(C)c(F)c3)cs2)s1` [Example 1976], above 1000 nM.
Molecule `Cc1nc(-c2ccc(F)cc2)c(-c2nc(C(=O)Nc3cccc(F)c3C)cs2)s1` [Example 1977] yielded a 50% inhibitory concentration (IC50) above 1000 nM.
The molecule `Cc1nc(-c2ccc(F)cc2)c(-c2nc(C(=O)Nc3ccc(F)cc3F)cs2)s1` [Example 1979] returned an IC50 above 1000 nM.
Turning to `Cc1nc(-c2ccc(F)cc2)c(-c2nc(C(=O)Nc3ccc4c(c3)CCC4)cs2)s1` [Example 1981], the IC50 is above 1000 nM.
To `Cc1nc(-c2ccc(F)cc2)c(-c2nc(C(=O)Nc3ccccc3C(C)C)cs2)s1` [Example 1982] belongs above 1000 nM.
To `CC(=O)c1cccc(NC(=O)c2csc(-c3sc(C)nc3-c3ccc(F)cc3)n2)c1` [Example 1983] belongs at most 1000 nM.
`CC(=O)c1ccc(NC(=O)c2csc(-c3sc(C)nc3-c3ccc(F)cc3)n2)cc1` [Example 1984] returned an IC50 above 1000 nM.
In turn, `CCc1cccc(C)c1NC(=O)c1csc(-c2sc(C)nc2-c2ccc(F)cc2)n1` [Example 1985] gave an IC50 above 1000 nM.
The molecule `Cc1cc(C)c(NC(=O)c2csc(-c3sc(C)nc3-c3ccc(F)cc3)n2)c(C)c1` [Example 1986] came in with an IC50 above 1000 nM.
In the case of `Cc1nc(-c2ccc(F)cc2)c(-c2nc(C(=O)Nc3ccc4c(c3)OCO4)cs2)s1` [Example 1987] it was at most 1000 nM.
In the case of `COc1ccc(NC(=O)c2csc(-c3sc(C)nc3-c3ccc(F)cc3)n2)c(C)c1` [Example 1988] it was at most 1000 nM; in that of `CCOc1cccc(NC(=O)c2csc(-c3sc(C)nc3-c3ccc(F)cc3)n2)c1` [Example 1989], above 1000 nM; in that of `CCOc1ccccc1NC(=O)c1csc(-c2sc(C)nc2-c2ccc(F)cc2)n1` [Example 1990], above 1000 nM.
Consider `CSc1ccccc1NC(=O)c1csc(-c2sc(C)nc2-c2ccc(F)cc2)n1` [Example 1991], for which the IC50 was above 1000 nM.
In the case of `Cc1nc(-c2ccc(F)cc2)c(-c2nc(C(=O)Nc3cccc(Cl)c3C)cs2)s1` [Example 1992] it was at most 1000 nM.
To `Cc1nc(-c2ccc(F)cc2)c(-c2nc(C(=O)Nc3ccc(C)c(Cl)c3)cs2)s1` [Example 1993] belongs above 1000 nM.
For `Cc1nc(-c2ccc(F)cc2)c(-c2nc(C(=O)Nc3cnc4ccccc4c3)cs2)s1` [Example 1994], the IC50 was at most 1000 nM.
To `Cc1nc(-c2ccc(F)cc2)c(-c2nc(C(=O)Nc3cc(F)c(F)cc3F)cs2)s1` [Example 1995] belongs above 1000 nM; to `Cc1nc(-c2ccc(F)cc2)c(-c2nc(C(=O)NC3CCCc4ccccc43)cs2)s1` (stereo not drawn) [Example 1996], above 1000 nM; to `Cc1nc(-c2ccc(F)cc2)c(-c2nc(C(=O)Nc3ccccc3C(C)(C)C)cs2)s1` [Example 1997], above 1000 nM.
`Cc1nc(-c2ccc(F)cc2)c(-c2nc(C(=O)Nc3c(C)cccc3C(C)C)cs2)s1` [Example 1998] returned an IC50 above 1000 nM.
As for `Cc1nc(-c2ccc(F)cc2)c(-c2nc(C(=O)Nc3ccc4ncsc4c3)cs2)s1` [Example 1999], the IC50 was above 1000 nM.
As for `CC(=O)Nc1ccc(NC(=O)c2csc(-c3sc(C)nc3-c3ccc(F)cc3)n2)cc1` [Example 2000], the IC50 is at most 1000 nM.
In the case of `CC(=O)Nc1ccc(NC(=O)c2csc(-c3sc(C)nc3-c3ccc(F)cc3)n2)cn1` [Example 2001] it was at most 1000 nM; in that of `Cc1nc(-c2ccc(F)cc2)c(-c2nc(C(=O)Nc3ccc4c(c3)OCCO4)cs2)s1` [Example 2002], at most 1000 nM.
On to `COc1ccc(NC(=O)c2csc(-c3sc(C)nc3-c3ccc(F)cc3)n2)cc1OC` [Example 2003], for which the IC50 was above 1000 nM.

Source of the values: patent US20060252807A1, “Novel ortho-terphenyl inhibitors of p38 kinase and methods of treating inflammatory disorders” (Kalypsys, Inc., priority 2005, published 2006).
